Legend:
[1] = Urinary excretions of β-lactam antibiotics after rectal suppository (rabbit); assay type: in vivo; conditions: Compound (I) 5%, Witepsol H-15
Procedure: The absorption into the circulation through the rectum of the rectal suppositories thus prepared was determined by measuring urinary excretion of the pharmacologically-active substance.
Thus, Sarcina lutea and Bacillus subtilis were used as assay organisms for penicillins and cephalosporins, respectively, and the assays were performed by the paper disk method (cultivation at 37° C. for from 15 to 20 hours).

[2] = Blood glucose level after rectal insulin administration (rabbit); assay type: in vivo; conditions: rectal suppository, Insulin 6 I. U., Compound (I) 5%; for Blood glucose level 0 hr.: Witepsol H-15, baseline, level at hour 0 considered 100%; for Blood glucose level 0.5 hr. / Blood glucose level 0.75 hr. / Blood glucose level 1.0 hr. / Blood glucose level 2.0 hr. / Blood glucose level […].: Witepsol H-15, relative to hour 0 = 100%
Text: To measure glucose levels, blood samples were taken from the auricular vein at timed intervals and assayed by the glucose oxidase method.
The urinary excretion values in Tables 1 to 5 are percentages based on the dose administered. The blood glucose levels in Table 6 are relative blood glucose levels when the blood glucose level at hour 0 is considered to be 100%.

[3] = Urinary excretions of AB-PC after administration of AB-PC rectal suppository (human); assay type: in vivo; conditions: AB-PC 125 mg (potency), Witepsol H-15, % of dose
Procedure: The thus-obtained suppositories were administered to healthy adult male humans from the anus, and the urinary excretions of AB-PC were determined.

[4] = Urinary excretions of peptide drugs after rectal suppository (rabbit); conditions: Colistin Sodium Methanesulfonate 150,000 IU, Compound (I) 5%, Witepsol H-15
Procedure: The thus-obtained suppositories were administered to rabbits from the anus, and the urinary excretions of the pharmacologically-active substance were determined.
(§1) Each rectal suppository was administered to a depth of 2 cm from the anus of a rabbit fasted 24 hours.
(§2) To measure the urinary excretions, urine samples were collected after administration at timed intervals, diluted and assayed by the biological assay procedure.
Thus, Escherichia coli was used as assay organism and the assays were performed by the cylinder plate method (cultivation at 37° C. for 15 to 20 hours).

[5] = Urinary excretions of aminoglycoside antibiotics after rectal suppository (rabbit); conditions: Compound (I) 5%, Witepsol H-15
Procedure: The thus-obtained suppositories were administered to rabbits and the urinary excretions of the pharmacologically-active substance were determined.
as §1, §2
Thus, Bacillus subtilis was used as assay organism and the assays were performed by the cylinder plate method (cultivation at 37° C. for 15 to 20 hours).

[6] = Gentamicin sulfate 125 mg (potency)
[7] = Kanamycin sulfate 125 mg (potency)
[8] = Dibekacin sulfate 125 mg (potency)

## CCCC(=O)NC(C(=O)O)c1ccccc1 (racemic) [Compound 29-Na, N--Butyryl-DL-phenylglycine]
[1]; 6059-S 125 mg (potency)
  Urinary excretions (%) 0-2 hr.: 47.2%
  Urinary excretions (%) 2-4 hr.: 8.6%
  Urinary excretions (%) 4-6 hr.: 2.0%
  Urinary excretions (%) Total (0-6 hr.): 57.8%
[2]
  Blood glucose level 0 hr.: 100%
  Blood glucose level 0.5 hr.: 60.0%
  Blood glucose level 0.75 hr.: 50.6%
  Blood glucose level 1.0 hr.: 55.0%
  Blood glucose level 2.0 hr.: 111.3%
  Blood glucose level […].: 81.2%

## O=C(O)CCCCCCCCCCC(=O)O [Compound 2-Na, 1,10-Decamethylenedicarboxylic acid]
[1]; Cefazolin 125 mg (potency)
  Urinary excretions (%) 0-2 hr.: 41.5%
  Urinary excretions (%) 2-4 hr.: 16.9%
  Urinary excretions (%) 4-6 hr.: 3.5%
  Urinary excretions (%) Total (0-6 hr.): 61.9%
[2]
  Blood glucose level 0 hr.: 100%
  Blood glucose level 0.5 hr.: 57.0%
  Blood glucose level 0.75 hr.: 50.5%
  Blood glucose level 2.0 hr.: 98.5%
  Blood glucose level […].: 68.5%
[3]; added compound 10%
  Urinary excretions of AB-PC (%) (0-6 hr.): 25.6%
[4]
  Urinary excretions (%) 0-2 hr.: 20.5%
  Urinary excretions (%) 2-4 hr.: 9.2%
  Urinary excretions (%) 4-6 hr.: 1.8%
  Urinary excretions (%) Total (0-6 hr.): 31.5%
[5]; [6]
  Urinary excretions (%) 0-2 hr.: 41.2%
  Urinary excretions (%) 2-4 hr.: 9.9%
  Urinary excretions (%) 4-6 hr.: 3.1%
  Urinary excretions (%) Total (0-6 hr.): 53.2%

## CCCCOc1ccc(C(=O)O)cc1 [Compound 3-Na, p-Butoxybenzoic acid]
[1]; Cefmetazole 125 mg (potency)
  Urinary excretions (%) 0-2 hr.: 45.0%
  Urinary excretions (%) 2-4 hr.: 20.0%
  Urinary excretions (%) 4-6 hr.: 1.5%
  Urinary excretions (%) Total (0-6 hr.): 66.5%
[1]; FK-749 125 mg (potency)
  Urinary excretions (%) 0-2 hr.: 41.6%
  Urinary excretions (%) 2-4 hr.: 19.2%
  Urinary excretions (%) 4-6 hr.: 3.0%
  Urinary excretions (%) Total (0-6 hr.): 63.8%
[2]
  Blood glucose level 0 hr.: 100%
  Blood glucose level 0.5 hr.: 60.0%
  Blood glucose level 1.0 hr.: 50.5%
  Blood glucose level 2.0 hr.: 103.3%
  Blood glucose level […].: 79.5%
[3]; added compound 10%
  Urinary excretions of AB-PC (%) (0-6 hr.): 20.9%
[5]; [7]
  Urinary excretions (%) 0-2 hr.: 45.1%
  Urinary excretions (%) 4-6 hr.: 2.6%
  Urinary excretions (%) Total (0-6 hr.): 59.8%

## O=C(O)CCCCCCCCCCCC(=O)O [Compound 5-Na, 1,11-Undecamethylene dicarboxylic acid]
[1]; Cefotiam 125 mg (potency)
  Urinary excretions (%) 0-2 hr.: 40.0%
  Urinary excretions (%) 2-4 hr.: 8.0%
  Urinary excretions (%) 4-6 hr.: 2.1%
  Urinary excretions (%) Total (0-6 hr.): 60.1%
[2]
  Blood glucose level 0 hr.: 100%
  Blood glucose level 0.5 hr.: 60.0%
  Blood glucose level 0.75 hr.: 51.7%
  Blood glucose level 1.0 hr.: 55.2%
  Blood glucose level 2.0 hr.: 110.3%
  Blood glucose level […].: 80.5%
[3]; Compound (I) 1%
  Urinary excretions of AB-PC (%) (0-6 hr.): 30.8%
[5]; [8]
  Urinary excretions (%) 0-2 hr.: 41.1%
  Urinary excretions (%) 2-4 hr.: 8.8%
  Urinary excretions (%) 4-6 hr.: 1.1%
  Urinary excretions (%) Total (0-6 hr.): 51.0%

## CCCCCCOc1ccc(C(=O)O)cc1 [Compound 6-Na, p-Hexyloxybenzoic acid]
[1]; SCE-1365 125 mg (potency)
  Urinary excretions (%) 0-2 hr.: 45.0%
  Urinary excretions (%) 2-4 hr.: 18.2%
  Urinary excretions (%) 4-6 hr.: 1.8%
  Urinary excretions (%) Total (0-6 hr.): 65.0%
[3]; added compound 10%
  Urinary excretions of AB-PC (%) (0-6 hr.): 21.2%

From patent US4442090A, “Absorption-promoting compounds, compositions thereof with pharmaceuticals and/or bases for rectal administration and method of use” (Kyoto Yakuhin Kogyo Kabushiki Kaisha, priority 1980, dated 1984)
